Experimental data from patent US8952024B2, “Herbicidal pyrimidone derivatives” (E I du Pont de Nemours and Company, priority 2009, dated 2015).
Read-outs that look alike come from different tables or passages of the source.

Tests used:
Assay in all cases: Test A pre-/postemergence plant response
Format in all cases: in vivo
[1] = test system: wheat (Triticum aestivum); conditions: Triticum aestivum, 240 h, read-out: Plant response rating, Wheat; for plant injury at 500 g/ha: 500 g ai/ha, approx. ten days
Procedure, shortened: (§1)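 Approximately ten days after concurrent pre- and postemergence spraying in a greenhouse, plants were compared with untreated controls and rated visually for injury, 0 = no effect to 100 = complete control. Preemergence spray was directed onto loam/sand soil; postemergence targeted 1–2 leaf seedlings.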

[2] = test system: giant foxtail (Setaria faberii); conditions: Setaria faberi, 240 h; for pest or weed control at 125 g/ha: 125 g ai/ha; for pest or weed control at 500 g/ha: 500 g ai/ha
Procedure, shortened: as §1

[3] = test system: morningglory (Ipomoea spp.); conditions: Ipomoea, 240 h; for pest or weed control at 125 g/ha: 125 g ai/ha; for pest or weed control at 500 g/ha: 500 g ai/ha
Procedure, shortened: as §1

[4] = test system: large crabgrass (Digitaria sanguinalis); conditions: Digitaria sanguinalis, 240 h; for pest or weed control at 125 g/ha: 125 g ai/ha; for pest or weed control at 500 g/ha: 500 g ai/ha
Procedure, shortened: as §1

[5] = test system: barnyardgrass (Echinochloa crus-galli); conditions: Echinochloa crus-galli, 240 h; for pest or weed control at 125 g/ha: 125 g ai/ha; for pest or weed control at 500 g/ha: 500 g ai/ha
Procedure, shortened: as §1

[6] = test system: corn (Zea mays); conditions: Zea mays, 240 h; for Corn plant response rating (crop injury, 0 = no effect, 100 = complete kill) at 500 g/ha: 500 g ai/ha
Procedure, shortened: as §1

[7] = test system: pigweed (Amaranthus retroflexus); conditions: Amaranthus retroflexus, 240 h; for pest or weed control at 125 g/ha: 125 g ai/ha; for pest or weed control at 500 g/ha: 500 g ai/ha
Procedure, shortened: as §1

[8] = test system: velvetleaf (Abutilon theophrasti); conditions: Abutilon theophrasti, 240 h; for pest or weed control at 125 g/ha: 125 g ai/ha; for pest or weed control at 500 g/ha: 500 g ai/ha
Procedure, shortened: as §1

[9] = pre-emergence, Preemergence, 125 g ai/ha, 0 to 100 scale, 0 = no effect, 100 = complete control

SMILES: O=C1CCCC(O)=C1C(=O)c1cnc(-c2ccccc2)n(-c2ccccc2)c1=O [Compound 2, 5-[(2-hydroxy-6-oxo-1-cyclohexen-1-yl)carbonyl]-2,3-diphenyl-4(3H)-pyrimidinone]
- plant injury at 500 g/ha ([1]; post-emergence, Postemergence, 0 to 100 scale, 0 = no effect, 100 = complete control): 20%
- plant injury at 125 g/ha [1, 9]: 0%
- plant injury at 500 g/ha ([1]; pre-emergence, Preemergence, visual injury, 0 to 100 scale (0 no effect, 100 complete control)): 0%
- pest or weed control at 125 g/ha ([2]; post-emergence, Postemergence, visual injury, 0 to 100 scale (0 no effect, 100 complete control), approx. ten days, read-out: Foxtail, Giant plant response rating): 90%
- pest or weed control at 500 g/ha ([2]; post-emergence, Postemergence, 0 to 100 scale, 0 = no effect, 100 = complete control, approx. ten days, read-out: Plant response rating, Foxtail, Giant): 100%
- pest or weed control at 125 g/ha ([2]; pre-emergence, Preemergence, 0 to 100 scale, 0 = no effect, 100 = complete control, read-out: Plant response rating, Foxtail, Giant): 50%
- pest or weed control at 500 g/ha ([2]; pre-emergence, Preemergence, visual injury, 0 to 100 scale (0 no effect, 100 complete control), approx. ten days, read-out: Plant response rating, Foxtail, Giant): 90%
- pest or weed control at 125 g/ha ([3]; post-emergence, Postemergence, visual injury, 0 to 100 scale (0 no effect, 100 complete control), approx. ten days, read-out: Morningglory plant response rating): 90%
- pest or weed control at 500 g/ha ([3]; post-emergence, Postemergence, 0 to 100 scale, 0 = no effect, 100 = complete control, approx. ten days, read-out: Plant response rating, Morningglory): 100%
- pest or weed control at 125 g/ha ([3]; pre-emergence, Preemergence, 0 to 100 scale, 0 = no effect, 100 = complete control, read-out: Plant response rating, Morningglory): 60%
- pest or weed control at 500 g/ha ([3]; pre-emergence, Preemergence, visual injury, 0 to 100 scale (0 no effect, 100 complete control), approx. ten days, read-out: Plant response rating, Morningglory): 90%
- pest or weed control at 125 g/ha ([4]; post-emergence, Postemergence, visual injury, 0 to 100 scale (0 no effect, 100 complete control), approx. ten days, read-out: Crabgrass, Large plant response rating): 90%
- pest or weed control at 500 g/ha ([4]; post-emergence, Postemergence, 0 to 100 scale, 0 = no effect, 100 = complete control, approx. ten days, read-out: Plant response rating, Crabgrass, Large): 100%
- pest or weed control at 125 g/ha ([4]; pre-emergence, Preemergence, 0 to 100 scale, 0 = no effect, 100 = complete control, read-out: Plant response rating, Crabgrass, Large): 80%
- pest or weed control at 500 g/ha ([4]; pre-emergence, Preemergence, visual injury, 0 to 100 scale (0 no effect, 100 complete control), approx. ten days, read-out: Plant response rating, Crabgrass, Large): 100%
- pest or weed control at 125 g/ha ([5]; post-emergence, Postemergence, visual injury, 0 to 100 scale (0 no effect, 100 complete control), approx. ten days, read-out: Barnyardgrass plant response rating): 100%
- pest or weed control at 500 g/ha ([5]; post-emergence, Postemergence, 0 to 100 scale, 0 = no effect, 100 = complete control, approx. ten days, read-out: Plant response rating, Barnyardgrass): 100%
- pest or weed control at 125 g/ha ([5]; pre-emergence, Preemergence, 0 to 100 scale, 0 = no effect, 100 = complete control, read-out: Plant response rating, Barnyardgrass): 10%
- pest or weed control at 500 g/ha ([5]; pre-emergence, Preemergence, visual injury, 0 to 100 scale (0 no effect, 100 complete control), approx. ten days, read-out: Plant response rating, Barnyardgrass): 70%
- plant injury at 125 g/ha ([6]; post-emergence, Postemergence, 125 g ai/ha, visual injury, 0 to 100 scale (0 no effect, 100 complete control), approx. ten days, read-out: Corn plant response rating): 30%
- Corn plant response rating (crop injury, 0 = no effect, 100 = complete kill) at 500 g/ha ([6]; post-emergence, Postemergence, 0 to 100 scale, 0 = no effect, 100 = complete control, approx. ten days): 90%
- Corn plant response rating (crop injury, 0 = no effect, 100 = complete kill) at 125 g/ha [6, 9]: 0%
- Corn plant response rating (crop injury, 0 = no effect, 100 = complete kill) at 500 g/ha ([6]; pre-emergence, Preemergence, visual injury, 0 to 100 scale (0 no effect, 100 complete control), approx. ten days): 0%
- pest or weed control at 125 g/ha ([7]; post-emergence, Postemergence, visual injury, 0 to 100 scale (0 no effect, 100 complete control), approx. ten days, read-out: Pigweed plant response rating): 100%
- pest or weed control at 500 g/ha ([7]; post-emergence, Postemergence, 0 to 100 scale, 0 = no effect, 100 = complete control, approx. ten days, read-out: Plant response rating, Pigweed): 100%
- pest or weed control at 125 g/ha ([7]; pre-emergence, Preemergence, 0 to 100 scale, 0 = no effect, 100 = complete control, read-out: Plant response rating, Pigweed): 100%
- pest or weed control at 500 g/ha ([7]; pre-emergence, Preemergence, visual injury, 0 to 100 scale (0 no effect, 100 complete control), approx. ten days, read-out: Plant response rating, Pigweed): 100%
- pest or weed control at 125 g/ha ([8]; post-emergence, Postemergence, visual injury, 0 to 100 scale (0 no effect, 100 complete control), approx. ten days, read-out: Velvetleaf plant response rating): 100%
- pest or weed control at 500 g/ha ([8]; post-emergence, Postemergence, 0 to 100 scale, 0 = no effect, 100 = complete control, approx. ten days, read-out: Plant response rating, Velvetleaf): 100%
- pest or weed control at 125 g/ha ([8]; pre-emergence, Preemergence, 0 to 100 scale, 0 = no effect, 100 = complete control, read-out: Plant response rating, Velvetleaf): 60%
- pest or weed control at 500 g/ha ([8]; pre-emergence, Preemergence, visual injury, 0 to 100 scale (0 no effect, 100 complete control), approx. ten days, read-out: Plant response rating, Velvetleaf): 100%
